We go through 10 compounds from patent US20210186943A1, “OTIC FORMULATIONS FOR DRUG-INDUCED OTOTOXICITY” (OTONOMY, INC., priority 2018, published 2021).

Read-outs that look alike come from different tables or passages of the source.

In series [1] the test system is cochlear hair cells. As to the kind of experiment: Effect of solvents on cisplatin-induced hair cell toxicity in cochlear explants. It is filed as cell-based, Sprague Dawley rat. Particulars: for Affect Cisplatin Toxicity: cisplatin exposed explants; for effect on cisplatin-induced hair cell toxicity: summary of Table M. How it is done: (§1) P2-P4 Sprague Dawley rat pups were used for all experiments.
(§2) Day 0: Dissected whole cochleae were mounted onto Cell-Tak-coated mesh inserts and incubated overnight in growth medium.
(§3) Day 3-4: Cochlea were fixed in 4% PFA overnight then immunohistochemically processed with the following: anti-MyoVIIa (1:500), anti-Neurofilament (1:500), Phalloidin (1:250), and DAPI (1:1000).
(§4) Z-stacks of the entire cochlea were imaged at 20x and stitched together using Zeiss Zen Black software. […] Healthy HCs and SGN fibers were counted within each box using Zeiss Zen Blue software. Error bars represent ±s.e.m. unless otherwise indicated.

Series [2] relates to cochlear hair cells. How it is done: as §1, §2, §3, §4
For series [3], the system named is guinea pigs. As to the kind of experiment: Acute cisplatin-induced hearing loss (CIHL) model, ABR threshold shift. The class given is in vivo, guinea pig. Particulars: single IT SP-600125 (20 mg/ml) in P407 24 hours prior to cisplatin IP 12 mg/kg; 7 days post-treatment; 4, 8, 16 kHz; vs IT P407 vehicle. How it is done: SP-600125 (20 mg/ml) in P407: 205.4 g of DI water were weighed. 1.1342 g of sodium chloride (Fisher Scientific) and 1.53 g of tromethamine (Fisher Scientific) were added. Solid materials were dissolved and the pH of the solution was adjusted to 7.8 with approximately 1.9 mL of 5 N HCl. 126.2 g of buffer was weighed and chilled down and 24.5 g of Poloxamer 407 (Lutrol F127, BASF) were added (e.g., sprinkled) while mixing to dissolve. The approximately 16% poloxamer solution was sterile filtered with a 0.22 μm PVDF 33 mm syringe filter. 207 mg of milled SP600125 (LC laboratories) was added, followed by […] of sterile filtered 16% Poloxamer 407 solution. The solution was then transferred to 3 mL autoclaved vials.
Female albino guinea pigs […] (n=6 per group) of approximately 6-8 weeks of age served as subjects for the experiments. […]
Auditory Brainstem Response (ABR) assessment—During the procedure, additional anesthetic was administered if needed to maintain the depth of anesthesia sufficient to insure immobilization and relaxation. ABRs were recorded in an electrically and acoustically shielded chamber, one ear at a time. […] Acoustic calibration was performed with TDT software (SigCal) and thresholds were expressed as dB SPL in conditions identical to that of threshold recordings in animals. […]
ABR thresholds were determined 7 days post-treatment at 3 frequencies (4, 8, and 16 kHz).

For series [4], the system named is spiral ganglion neurons (SGNs). As to the kind of experiment: Protection of spiral ganglion neurons from cisplatin-induced degeneration in cochlear explant model (Example B10). It is filed as cell-based. Particulars: 1.5 hour pretreatment followed by co-treatment with 10 μM cisplatin. How it is done:
(§5) Protective effects of various otoprotectant molecules on cisplatin-induced degeneration of hair cells and spiral ganglion neurons were measured. FIGS. 19 and 20 show the quantified percent protection (normalized to naïve) graphs for outer hair cells (OHCs) and spiral ganglion neurons (SGNs).

Series [5] has as its system outer hair cells (OHCs). In words: Protection of outer hair cells from cisplatin-induced degeneration in cochlear explant model (Example B10). It is filed as cell-based. Particulars: 1.5 hour pretreatment followed by co-treatment with 10 μM cisplatin. How it is done: as §5
Series [6] has as its system strial cells. In words: Caspase 3/7 activation in dissociated strial cultures with cisplatin and antioxidants (Example B8). The class given is cell-based, Sprague-Dawley rat. Conditions: cisplatin alone. From the text:
Neonatal (P2-P4) Sprague-Dawley rats were used for the experiments described here. Animals were euthanized following anesthesia using isoflurane. Rat cochleae were then dissected in cold HBSS medium enriched with glucose.
Following cochlear dissection, Reissner's membrane and the lateral wall were separated and the stria vascularis was then removed from the lateral wall. Strial cells were then dissociated, seeded onto Poly-d-lysine coated 96 well plates and grown to achieve 80-90% confluency before treatment. […] After incubation, cells were lysed using the Promega caspase 3/7 Glo kit and the intensity of caspase 3/7 were read using Perkin-Elmer Enspire plate reader.
At this stage, cells also began to show formation of vessels (Laminin staining).

In series [7] the test system is spiral ganglion neurons (SGNs). In words: Cisplatin-induced spiral ganglion neuron damage in ex vivo cochlear explants. On the set-up: SGN fiber density (SGNs per 200 μm): dose or concentration left out as unconfirmed. It is filed as cell-based, Sprague Dawley rat. From the text:
(§6) Error bars represent ±s.e.m. unless otherwise indicated.

Series [8] concerns cochlear hair cells. As to the kind of experiment: Cisplatin-induced hair cell damage in ex vivo cochlear explants. Conditions: various cisplatin concentrations, 48 or 72 hours. It is filed as cell-based, Sprague Dawley rat. On the set-up: dose or concentration left out as unconfirmed.
From the text: as §6

Series [9] deals with dissociated strial cells. As to the kind of experiment: Caspase-Glo 3/7 caspase activation in dissociated strial cultures (Example B7). The class given is cell-based, Sprague Dawley rat. Particulars: 0.5% DMSO vs 0% DMSO. How it is done: Post cochlear dissection, Reissner's membrane and the lateral wall were gently separated from the basilar membrane with fine forceps. The stria vascularis was then pulled off the lateral wall and collected separately. Cells were then dissociated using a pipette post-trypsinization and seeded onto Poly-d-lysine-coated 96-well plates. Cells were grown for 48-72 hours to achieve 80-90% confluency before treatment. […] Following treatment, cells were exposed to the Caspase-Glo 3/7 (Promega) reagent for 30 minutes then […] was read on a plate reader.
The dissociated strial cells were mostly comprised of marginal cells by 24 hours in vitro.

Turning to `CCO` [Ethanol], the “Affect Cisplatin Toxicity” value in [1] (solvent concentration 1%), in [1] (solvent concentration 2%) and in series [1] (solvent concentration 2.5%) was “No” each time. The “HC Toxicity” value in [2] was “No”. The “toxicity on naive cochlear explants” value in [2] is “no evident toxicity”.

In the case of `O=C1c2ccccc2-c2n[nH]c3cccc1c23` [SP-600125, anthra[1,9-cd]pyrazol-6(2H)-one], the ABR threshold shift entry in [3] is listed as “dramatically reduced the ABR threshold shift”.

As to `Nc1nc2nc[nH]c2c(=S)[nH]1` [6-thioguanine], the “percent protection (normalized to naïve) of spiral ganglion neurons” value in [4] is “complete protection”. The “percent protection (normalized to naïve) of outer hair cells” value in series [5] is “almost complete protection”.

As to `N.N.[Cl][Pt][Cl]` [cisplatin], the “caspase 3/7 activation (RLU)” value in series [6] is recorded as “increased caspase 3/7 activation”. Further, the “difference from base to apex in SGN susceptibility to cisplatin” value in series [7] (base, mid, apex regions) is listed as “No significant difference”. Also, in series [7] (varying concentrations of cisplatin, 48 or 72 hours), the “SGN fiber density (SGNs per 200 μm)” value was “decreases in a dose dependent manner”. In addition, in series [8], the “IHCs per 200 μm” value was “decreased in a dose- and exposure time-dependent manner”; the “OHCs per 200 μm” value was “decreased in a dose- and exposure time-dependent manner”.

For the compound PEG400, the “Affect Cisplatin Toxicity” value in series [1] (solvent concentration 2%) is “Yes-Protection”. Also, in [1], the “effect on cisplatin-induced hair cell toxicity” value is “reduced cisplatin-induced hair cell toxicity”.

`CC#N` [Acetonitrile]: the “Affect Cisplatin Toxicity” value in series [1] (solvent concentration 3%) was “No”. In series [2] (solvent concentration 3%, cochlear explants), the “HC Toxicity” value is given as “Slight”.

On to `CC(C)=O` [Acetone], for which the “Affect Cisplatin Toxicity” value in series [1] (solvent concentration 1%) and in series [1] (solvent concentration 2%) was “No” in each case. The “HC Toxicity” value in series [2] (solvent concentration 1%, cochlear explants) is reported as “No”; in series [2] (solvent concentration 2%, cochlear explants), “No”. Besides, the “toxicity on naive cochlear explants” value in series [2] (summary of Table M, all tested concentrations) is recorded as “no evident toxicity”.

On to `C[S+](C)[O-]` [DMSO, dimethyl sulfoxide], for which the “Affect Cisplatin Toxicity” value in series [1] (solvent concentration 0.1%), in series [1] (solvent concentration 0.5%) and in series [1] (solvent concentration 1%) was “Yes-Protection” in each case. Also, the “effect on cisplatin-induced hair cell toxicity” value in [1] is “reduced cisplatin-induced hair cell toxicity”. Moreover, in [9], the “effect on cisplatin-induced caspase activation (relative light units)” value was “reduced cisplatin-induced caspase activation”. Also, the “HC Toxicity” value in series [2] is given as “No”. Moreover, the “toxicity on naive cochlear explants” value in series [2] is on record as “no evident toxicity”.

Consider `CN1CCCC1=O` [N-Methyl-2-pyrrolidone], for which the “HC Toxicity” value in series [2] is recorded as “Yes”.

In the case of `O=C(OCc1ccccc1)c1ccccc1` [Benzyl benzoate], the “Affect Cisplatin Toxicity” value in series [1] (solvent concentration 0.5%) and in series [1] (solvent concentration 1%) was “No” in each case. Further, the “HC Toxicity” value in series [2] is on record as “No”. In addition, the “toxicity on naive cochlear explants” value in series [2] is recorded as “no evident toxicity”.
